Test results reported in patent publication US20230183753A1, “Methods of in Vitro Cell Delivery” (Intellia Therapeutics, Inc., priority 2020, published 2023).

Legend:
Type in all cases: cell-based, human
B2M, CD3, MHC II = assay: Flow cytometry of antigen negative T cells (B2M, CD3, MHC II) after BC22n or Cas9 editing, Example 16A
Excerpt: Cells were subsequently washed, processed on a Cytoflex instrument (Beckman Coulter) and analyzed using the FlowJo software package. T cells were gated based on size, shape, viability, and antigen expression.

[1] = tested on: interchromosomal translocations; assay: UnIT structural variant assay (interchromosomal translocations), Example 16.B.7; details: multiplex editing with 4 guides by LNP
Method: On day 8 post-editing a subset of T cells from the untreated, LNP-Cas9-4 guides and LNP-BC22n-4 guides samples were collected, spun down and resuspended in 100 μL of PBS. gDNA was isolated from the cells using DNeasy Blood & Tissue Kit (Qiagen Cat. 69504). The UnIT structural variant characterization assay was applied to these gDNA samples. High molecular weight genomic DNA is simultaneously fragmented and sequence-tagged (‘tagmented’) with the Tn5 transposase and an adapter with a partial Illumina P5 sequence and a 12 bp unique molecular identifier (UMI). Two sequential PCRs using a primer to P5 and hemi-nested gene specific primers (GSP) imparting the Illumina the P7 sequence to create two Illumina compatible NGS libraries per sample. Sequencing across both directions of the CRISPR/Cas9 targeted cut site with the two libraries allows the inference and quantification of structural variants in DNA repair outcomes after genome editing.

[2] = tested on: B2M, CD3, HLA II-DR, DP, DQ; assay: Flow cytometry of surface proteins (B2M, CD3, HLA II-DR, DP, DQ) after LNP delivery, Example 16.B.6; details: LNP treatment
Method: (§1) LNPs were formulated generally as in Example 1 with a single RNA species cargo. […] Seventy-two hours post activation, T cells were washed and suspended in OpTmizer media with cytokines without human serum. […] A control group including unedited T cells (no LNP) was also included. At 16 hours post-delivery, a subset of cells was used to measure cell viability and another subset of cells was processed for imaging of γH2AX foci. The remaining T cells continued to expand in culture. Media was changed 5 days and 8 days after activation and on the eleventh day post activation, cells were harvested for analysis by NGS, flow cytometry and UnIT. NGS was performed as in Example 1.
(§2) On day 8 post-editing, T cells were phenotyped by flow cytometry to determine B2M, CD3 and HLA II− DR, DP, DQ protein expression. Briefly, T cells were incubated in a cocktail of antibodies targeting B2M-APC/Fire™ 750 (BioLegend® Cat. No. 316314), CD3-BV605 (BioLegend® Cat. No. […]) and HLA II− DR, DP, DQ-PE (BioLegend® Cat. No. 361716). Cells were subsequently washed, processed on a Cytoflex flow cytometer (Beckman Coulter) and analyzed using the FlowJo software package. T cells were gated based on size, shape, viability, and MHC II expression. […]

[3] = tested on: B2M, TRAC, TRBC1/2, CIITA; assay: NGS editing profile of T cells with BC22n or Cas9 mRNA, single or four guides, LNP titration, Example 16A; details: four guides simultaneously, with trans UGI;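 also: activated T cells exposed to LNPs 72 h after activation, kept at 37 °C, harvested on day 10 post activation, editing measured by NGS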
B2M, TRAC, TRBC, CIITA = assay: NGS percent editing after LNP delivery of BC22n or Cas9 with single or four guides, Example 16.B.6; details: 4 guides delivered by LNP
Method: as §1, §2

Substance: BC22n: mRNA encoding editor: H. sapiens APOBEC3A fused to S. pyogenes-D10A Cas9 nickase by an XTEN linker, without UGI
- % of cells lacking all three antigens (triple knockout: B2M, CD3, MHC II) (B2M, CD3, MHC II; four guides, with trans UGI, highest total RNA dose of 550 ng): 84.2%
- R square, C to T conversions compared to antigen knockout (B2M, CD3, MHC II; samples treated with one guide only): 0.93
- interchromosomal translocations / structural variation (UnIT), in words [1]: reduced to background levels
- triple knockout cells compared with Cas9, in words [2]: greater percentage of triple knockout cells
- maximum total editing for each locus compared with Cas9, in words [3]: higher percentages of maximum total editing for each locus
- percent editing at each locus compared with Cas9, in words (B2M, TRAC, TRBC, CIITA): percent editing is higher at each locus
